What all share (test): inhibition of tumour cell growth, NCI panel, 48 h
Experiment [1] deals with K-562 leukemia.
In experiment [2] the test system is NCI-H23 lung.
Experiment [3] relates to PC-3 prostate.
Experiment [4] deals with BT-549 breast.
Experiment [5] relates to SK-MEL-28 melanoma.
In experiment [6] the test system is SK-MEL-5 melanoma.
Experiment [7] concerns CAKI-1 renal.
Experiment [8] deals with HCT-15 colon.
For experiment [9], the system named is CCRF-CEM leukemia.
Experiment [10] has as its system HOP-92 NSCLC.

The structures appear in SMILES notation.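 Test compounds were applied to cells in 96-well plates for 48 hours at 5 doses. TGI marks complete inhibition of growth.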

With `C=C1C(=O)OC2/C=C(/C)C3(O)OC(C)(CC(OC(=O)C(C)C)C12)CC3OC(C)=O` (configuration not stated), the TGI in [1] is above 100 µM; in experiment [2], 18.6 µM; in [3] it was 62.9 µM; in experiment [4] it was 22.3 µM; in experiment [5], above 53 µM; in [6], 23.8 µM. For the same compound, the TGI in experiment [7] is 7.18 µM; in experiment [8], 24.5 µM; in experiment [9], above 25.5 µM; in [10], 40.1 µM.
`CC12CC1C(c1cccc([N+](=O)[O-])c1)(c1cccc([N+](=O)[O-])c1)N=N2` (configuration not stated): the TGI in experiment [1] was above 100 µM; in [2], 51.5 µM; in experiment [3], 88.8 µM; in experiment [4], 45.8 µM; in [5], above 100 µM; in experiment [6], above 100 µM. For the same compound, the results for the TGI in [8], in experiment [9] and in experiment [10] were 44 µM, 43.9 µM and 34.7 µM, respectively.
On to `OC1(c2ccc(Cl)cc2)c2ccc(CN3CCCC3)cc2C2=NCCN21` (configuration not stated), for which the TGI is 45.2 µM in experiment [1]; 31.2 µM in experiment [2]; 27.2 µM in experiment [3]; 21.3 µM in experiment [4]; 22.7 µM in experiment [5]; 22.3 µM in experiment [6]. The TGI in experiment [7] came to 31.7 µM; in experiment [8], 32.9 µM; in experiment [9], 30.7 µM; in experiment [10], 16.1 µM.
On to `O=C1c2cccc(NCCNCCO)c2C(=O)c2cccc(NCCNCCO)c21`, for which the TGI in [1] was determined as 15 µM; in experiment [2] it was 5.68 µM; in experiment [3] it was 3.02 µM; in [4], 8.85 µM; in [5], 5.88 µM; in experiment [6] it was 3.39 µM. The TGI in [7] worked out at 4.56 µM; in experiment [8] it was 19 µM; in experiment [9], 2.88 µM; in experiment [10], 2.9 µM.
On to `Nc1nc(Nc2ccccc2)sc1C(=O)c1c[nH]c2ccccc12`, for which the TGI stood at 56.7 µM in experiment [1]; 49.2 µM in experiment [2]; 25.3 µM in [3]; 29.8 µM in experiment [4]; 26.3 µM in experiment [5]; 25.1 µM in experiment [6]. In addition, the TGI in experiment [8] is 14.7 µM; in experiment [9], 14.5 µM; in experiment [10] it was 33.2 µM.
Take `CCOC(=O)C(C)c1nc2c(Cl)c3ncccc3cc2[nH]c1=O` (configuration not stated): the TGI in experiment [1], in experiment [2], in experiment [3], in experiment [4], in experiment [5] and in experiment [6] was above 100 µM in each case. Moreover, the TGI was above 100 µM in experiment [7], above 100 µM in [8], 68.4 µM in experiment [9] and above 100 µM in [10].
Consider `CCCCC/C(C=O)=C\c1ccccc1`, for which the TGI in experiment [1] is 69.8 µM; in experiment [2], above 100 µM; in experiment [3], above 100 µM; in experiment [4], above 100 µM; in [5], above 100 µM; in experiment [6], above 100 µM. The TGI in experiment [7], in experiment [8], in [9] and in experiment [10] was above 100 µM in each case.
Regarding `O=C(O)c1c2c(cc3c1CC1(Cc4ccccc4C1=O)C3)CCC2` (configuration not stated), the TGI in experiment [1] was 33.6 µM; in experiment [2], above 100 µM; in experiment [3], above 100 µM; in experiment [4] it was above 93.4 µM; in [5] it was above 100 µM; in experiment [6] it was above 65 µM. Besides, the TGI in [7] is above 100 µM; in [8], above 100 µM; in experiment [9], 33.9 µM; in experiment [10], above 91.6 µM.
As for `COC(=O)c1cc2c(cc1CC(Cc1ccc3c(c1)CCC3)C(=O)OC)CCC2` (configuration not stated), the TGI in [1] was above 100 µM; in experiment [2] it was above 100 µM; in [3] it was above 100 µM; in experiment [4] it was above 100 µM; in experiment [5] it was above 100 µM; in [6] it was 67.6 µM. The TGI in [7], in [8], in experiment [9] and in experiment [10] was above 100 µM in each case.
`Clc1ccc(Cl)c(SCCCN2CCNCC2)c1`: the TGI in [1] was determined as 39.9 µM; in experiment [2], 39.8 µM; in experiment [3], 29.7 µM; in [4] it was 33.6 µM; in experiment [5] it was 26.9 µM; in experiment [6], 33.1 µM. For the same compound, the TGI in [7] was determined as 41.8 µM; in experiment [8] it was 40.7 µM; in experiment [9], 50.5 µM; in experiment [10] it was 32.6 µM.
Take `COc1cc(OCc2ccc3nc(OC)c(OC)nc3c2)cc(OC)c1OC`: the TGI in experiment [1] is above 10 µM; in [2], above 10 µM; in experiment [3], above 4.95 µM; in experiment [4] it was above 6.32 µM; in experiment [5], above 10 µM; in experiment [6], above 10 µM. For the same compound, the TGI in experiment [7], in [8], in [9] and in experiment [10] was above 10 µM throughout.
As for `COC(=O)C1(Cc2ccc3c(c2)CCC3)Cc2cc3c(cc2C1)CCC3`, the TGI in experiment [1], in experiment [2], in [3], in experiment [4], in experiment [5] and in experiment [6] was above 100 µM throughout. The TGI in experiment [8] is above 100 µM; in [9], 47.8 µM; in [10] it was above 100 µM.
For the compound `COc1c(O)c(O)cc2c1-c1ccc(OC)c(=O)cc1C(NC(C)=O)CC2` (configuration not stated), the TGI was 19.2 µM in experiment [1]; 34.2 µM in experiment [2]; above 100 µM in [3]; 14.9 µM in experiment [4]; above 100 µM in [5]; 11.3 µM in experiment [6]. The TGI in [7] was 95.6 µM; in [8] it was above 100 µM; in experiment [9], 40.2 µM; in experiment [10] it was 17.8 µM.

These data come from PubChem BioAssay (NCI).
